Measured values reported in patent US20050209335A1, “Methods for use of TARGRETIN in organ transplant rejection, autoimmune diseases and cancer” (priority 2004, published 2005).
Where two headings read alike, the source gives them in different places.

Columns and labels:
[1] = test system: squamous cell carcinoma of the head and neck; conditions: cited from earlier work
eczema dermatitis = assay: TARGRETIN as substitute for tacrolimus and steroids in eczema dermatitis; conditions: in vivo
[2] = test system: acute myeloid leukemia (AML); format: in vivo
Protocol: In these studies, five patients with relapsed refractory AML were treated with TARGRETIN monotherapy.
The first patient had failed induction chemotherapy, had fungal pneumonia, and active leukemia with no immune system. This patient was sent home under hospice care, but given TARGRETIN to take orally in a pill formulation. Within a few months, this patient no longer needed hospice care and had returned to work. It is believed that upon administration of TARGRETIN, this patient was able to maintain an immune system, thereby clearing the fungal pneumonia and preventing further fatal infections.
The second patient was a heart transplant patient who developed AML and failed induction chemotherapy as well as a second line of chemotherapy. With active leukemia and no immune system they were placed on TARGRETIN. […] Upon escalation of the TARGRETIN dose it was observed that their neutrophil count continued to increase and the leukemia count dropped. This increase in neutrophil count and decrease in leukemia count continued with each dose escalation until the patient was taking six TARGRETIN capsules a day. […] This syndrome is a cell differentiation disorder wherein leukemia cells differentiate into normal immune cells. While this syndrome is good in that it boosts the immune system while decreasing the leukemia count, cytokines released by the differentiating neutrophils can cause a pulmonary syndrome. At six TARGRETIN capsules a day the second patient developed a syndrome exactly like that observed in ATRA administration. TARGRETIN treatment was stopped and within one week the neutrophil count dropped from 1500 to 200 and the pulmonary syndrome resolved. TARGRETIN treatment was then restarted at three capsules daily and the neutrophil count returned to 600. This patient continued treatment for an additional 9 months at which time they developed an infection and died. At the time of death their leukemia was still well under control.
The third patient had failed induction therapy and was suffering from active AML with disseminated intravascular coagulation (DIC), a blood clotting disorder relating to active leukemia. This patient was completely bed-ridden. It was believed that they could not tolerate further chemotherapy and was placed on TARGRETIN. […] They also developed a small number of immune cells and was able to return to their home where their physical condition continued to improve. This patient lived for approximately 4.5 months before they developed progressive leukemia. At that point they declined further therapy and expired.
The fourth patient had raging AML. This patient was placed on TARGRETIN but expired within 3 days of starting treatment. It is believed that the TARGRETIN treatment may have been started too late in the course of this patient's disease to provide an effect.
The fifth patient treated with TARGRETIN was suffering from a relapse after already having undergone an allogeneic bone marrow transplant, one of the most aggressive treatments possible for AML. […] This patient ultimately expired, however, from complications relating to their bone marrow transplant.

melanoma = conditions: single daily oral dose of 450 mg/m^2 in capsule form; cited from earlier work
[3] = test system: non-small-cell lung carcinoma; conditions: oral, in combination with cisplatin and vinorelbin, previously untreated patients; cited from earlier work
[4] = test system: NMU-induced mammary carcinomas; conditions: rat; cited from earlier work
[5] = Tolerability of TARGRETIN dosing regimes in patients; format: in vivo, human
Excerpt: Further, by “effective amount” as used herein, it is meant a concentration of TARGRETIN administered by a selected route and dosing schedule which lessens or decreases severity of a symptom of the disease state or condition from which the patient is suffering and/or a concentration of TARGRETIN which increases neutrophil count in a patient and/or a concentration of TARGRETIN which increases the efficacy of a co-administered cancer chemotherapeutic agent. Such amounts can be routinely determined by those skilled in the art based upon the teachings herein as well as what is known in the art about TARGRETIN with respect to treatment of cutaneous T-cell lymphoma. […] Further, the Food and Drug Administration's approved dose for TARGRETIN in the treatment of cutaneous T-cell lymphoma is 300 mg/M^2. It is expected that similar dosages will also be effective in treating autoimmune diseases or disorders, and in particular graft versus host disease, as well as organ transplant rejection.

[6] = test system: refractory acute lymphocytic leukemia; assay: TARGRETIN in combination with low dose chemotherapy in two patients with refractory acute lymphocytic leukemia; format: in vivo, human; conditions: both patients
Protocol: In these experiments, two patients with refractory acute lymphocytic leukemia were treated with TARGRETIN in combination with low dose chemotherapy.

[7] = test system: T-cell non-Hodgkin's lymphoma; assay: TARGRETIN in patients with T-cell non-Hodgkin's lymphomas other than cutaneous T-cell lymphoma; format: in vivo, human
Protocol: Specifically, TARGRETIN was administered to a patient suffering from a post-transplant lymphoproliferative disorder type lymphoma. This is a T-cell non-Hodgkin's lymphoma related to organ transplantation. This patient had horrific lymphoma with involvement of their cerebral spinal fluid.
TARGRETIN was administered to a second patient suffering from a rare type of T-cell lymphoma, an angiocentric T-cell lymphoma.

C=C(c1ccc(C(=O)O)cc1)c1cc2c(cc1C)C(C)(C)CCC2(C)C [TARGRETIN]
effect on proliferation [1]: decrease | efficacy in eczema dermatitis (eczema dermatitis): effective substitute for tacrolimus and steroids | immune response upon initiation of treatment ([2]; fifth patient, relapse after allogeneic bone marrow transplant): mounted an immune system response | duration leukemia kept under control ([2]; first patient, oral pill formulation): kept under control for nine months | time to death after starting treatment ([2]; fourth patient, raging AML): ≤ 3 days | adverse event ([2]; human, in vivo): developed a pulmonary syndrome very similar to that seen in patients taking trans retinoic acid (ATRA) | additional duration of treatment, leukemia still well under control at death ([2]; second patient, after restart at three capsules daily): 9 months | neutrophil count ([2]; second patient, at six capsules a day, before treatment was stopped): 1500 | neutrophil count ([2]; second patient, treatment restarted at three capsules daily): 600 | neutrophil count ([2]; second patient, within one week after TARGRETIN treatment was stopped): 200 | change of neutrophil count and leukemia count after start of treatment ([2]; second patient, within one week of treatment): neutrophil count and/or immune system was rising and their leukemia count was dropping | patients exhibiting a positive response (increase in neutrophil count and/or decrease in leukemia count) ([2]; terminal AML, TARGRETIN monotherapy): 4 out of 5 | resolution of disseminated intravascular coagulation (DIC) ([2]; third patient): resolved within four days | time lived before progressive leukemia ([2]; third patient): approximately 4.5 months | efficacy against melanoma (melanoma): ineffective | response rate and survival [3]: acceptable phase II response rates with better-than expected survival | efficacy as chemopreventative and chemotherapeutic agent [4]: efficacious | tolerability ([5]; 100 to 150 mg per meter square of body surface area, ongoing clinical trials): well-tolerated | tolerability ([5]; oral 2-3 capsules a day or 150 to 225 mg a day): without unwanted side effects | efficacy of combination treatment [6]: significantly greater than expected | duration of remission ([7]; patient with angiocentric T-cell lymphoma, prior bone marrow transplant failed): in remission for three months | duration of remission ([7]; patient with post-transplant lymphoproliferative disorder type lymphoma, prior chemotherapy failed): in remission for four months
